Assay: Storage stability of the crystal in a hermetically sealed glass bottle, content (residual percentage) by HPLC
Assay type: physicochemical
Details: for description: appearance
Protocol: The crystal of a sodium salt obtained in Example 1 (about 5 mg) was served into a colorless glass bottle, the bottle was hermetically sealed by a stopper, and stability of the crystal during storage at 60° C. for 4 weeks was examined. 25 ml of a sample (concentration: about 0.2 mg/ml) was prepared by dissolving the sample after completion of storage in a mobile phase. The sample solution along with a standard solution prepared by using the initial lot (a frozen sample stored for the same term), was analyzed under the HPLC conditions shown below, and the content (residual percentage) was calculated from the peak area obtained.
[HPLC Analytical Conditions]
Detection wavelength: UV 275 nm
Mobile phase: Fluid prepared by adding phosphoric acid to water/acetonitrile/triethylamine (63:37:1) to adjust pH 7
Column temperature: 40° C.
Sample injection volume: 10 μL

Compound: Cc1c(OCC(F)(F)F)ccnc1C[S@@+]([O-])c1nc2ccccc2[n-]1.[Na+] [Example 1, sodium salt of (R)-2-[[[3-methyl-4-(2,2,2-trifluoroethoxy)-2-pyridinyl]methyl]sulfinyl]-1H-benzimidazole]
- content (residual percentage) (freeze-storage for the same term (initial lot used as standard)): [100] %
- description (freeze-storage): nearly white
- content (residual percentage) (solid crystal stored at 60° C. (airtight) for 4 weeks, HPLC peak area vs frozen initial lot, listed as crystal of Ex. 1): 99.2%
- content (residual percentage) (solid crystal stored at 60° C. (airtight) for 4 weeks, HPLC peak area vs frozen initial lot, listed as crystal of a sodium salt of R(+)-lansoprazole): exceeding 99%
- description (solid crystal stored at 60° C. (airtight) for 4 weeks): nearly white

From patent US8809542B2, “Salts of benzimidazole compound and use thereof” (Takeda Pharmaceutical Company Limited, priority 2000, dated 2014)
